Assay results published in patent publication US5747235A, “Silver halide light sensitive emulsion layer having enhanced photographic sensitivity” (Eastman Kodak Company, priority 1996, dated 1998).
Where a name gives a salt, the structure may show the parent alone.

How the values were obtained:
Assay type in all cases: physicochemical
[1] = fragmentation rate constant kfr by laser flash photolysis; details: Table H; model compound, A and L replaced by alkyl
Method in brief: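 DCA excited by laser in presence of biphenyl and ca. 10^-2 M donor generates X-Y radical cation; its decay was monitored at mostly 470-530 nm. Run in acetonitrile with 20% water, mostly at room temperature, some rates extrapolated from temperature dependence; oxygen purging used for decays below 10^6 s^-1.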

[2] = oxidation potential E2 of radical X by laser flash photolysis; details: Table H; model compound, A and L replaced by alkyl
Method in brief: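 Radical X· generated by fragmentation of X-Y·+, formed via 410 nm laser-excited cyanoanthracene (ca. 2×10^-5–10^-4 M) with biphenyl (ca. 0.1 M) cosensitiser and X-Y (ca. 10^-3 M) in acetonitrile or 80:20 acetonitrile/water. E2 bracketed by observing second-acceptor reduction (DCA −0.91 V, TriCA −0.67 V, TCA −0.44 V) by transient absorption near 705–715 nm.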

[3] = oxidation potential E1 by cyclic voltammetry; details: for E1 (V) for XY moiety: Table H, model compound, A and L replaced by alkyl
Method in brief: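 Compound in 80:20 (v/v) acetonitrile/water with 0.1M lithium perchlorate, nitrogen-purged 10 minutes. Glassy carbon working, platinum wire counter and saturated calomel reference electrodes; 25° C, sweep rate 0.1 V/sec. E1 is the voltammetric peak potential vs. SCE.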

Compound | kfr (s^-1) for XY moiety [1] [s⁻¹] | E2 (V) for XY moiety [2] [V] | E1 (V) for XY moiety [3] [V] | E1 (V) ([3]; Table II) | E1 (V) ([3]; Table III) | E1 (V) ([3]; Table X) | E1 (V) ([3]; Table IV) | E1 (V) ([3]; Table IX) | E1 (V) ([3]; Table XI)
CCSCCN(c1ccc(C)cc1)[C@@H](C)C(=O)[O-].[Na+] [Compound S-3, N-(4-Methylphenyl)-N-(2-ethylthio-ethyl)alanine sodium salt] | 6e+07 | < -0.9 | 0.34 | 0.47 | 0.38 | 0.38 | – | – | –
CCSCCN(c1ccc(C)cc1)C(CC(=O)O)C(=O)O (stereo not drawn) [Compound S-8] | 1.3e+07 | < -0.9 | 0.38 | – | 0.45 | 0.45 | – | – | –
CCSCCN(c1ccccc1)C(C)C(=O)O (stereo not drawn) [Compound S-9, N-(Phenyl)-N-(2-thioethyl-ethyl)alanine sodium salt] | > 2e+07 | < -0.9 | 0.43 | – | 0.43 | 0.43 | 0.43 | – | –
CCSCCN(c1ccc(C(=O)O)cc1)C(C)C(=O)O (stereo not drawn) [Compound S-11] | > 2e+07 | < -0.9 | 0.54 | – | – | – | 0.55 | 0.54 | 0.54
CCSCCN(c1ccc(Cl)cc1)C(C)C(=O)O (stereo not drawn) [Compound S-12, N-(4-Chlorophenyl)-N-(2-thioethyl-ethyl)alanine sodium salt] | > 2e+07 | < -0.9 | 0.40 | – | – | – | 0.51 | – | 0.51
CCSCCN(c1cccc(C(N)=O)c1)C(C)C(=O)O (stereo not drawn) [Compound S-13] | > 2e+07 | < -0.9 | 0.52 | – | – | – | 0.53 | 0.53 | 0.53
CCSCCN(c1ccccc1)C(CC(=O)O)C(=O)O (stereo not drawn) [Compound S-14] | > 2e+07 | < -0.9 | 0.48 | – | – | – | – | 0.51 | 0.51
Cc1ccc(N(CCC(=O)Nc2cccc(-n3nnnc3S)c2)C(C)C(=O)O)cc1 (stereo not drawn) [PMT-1] | > 2e+07 | < -0.9 | 0.34 | – | – | – | – | – | –
CC(C(=O)O)N(CCC(=O)Nc1cccc(-n2nnnc2S)c1)c1ccccc1 (stereo not drawn) [PMT-2] | > 2e+07 | < -0.9 | 0.43 | – | – | – | – | – | –
